Data taken from patent US9593108B2, “Compounds and methods for antiviral treatment” (PTC Therapeutics, Inc., priority 2009, dated 2017).
pIC50: −log10 of the molar value.

Assays:
[1] = tested on: HCV replicon RNA (GenBank Accession No. AJ242654); experiment: HCV Replicon Assay (replicon RNA reduction and/or Fluc reporter signal); format: cell-based, Hepatitis C virus; details: Hepatitis C virus, 72 h, replicon-containing cells cultured with test compound for up to 3 days
Procedure, shortened: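 Bicistronic replicon-containing cells cultured with compound for up to 3 days, with interferon as positive control. Inhibition quantified by replicon RNA reduction and/or Fluc reporter signal; IC50 values generally derived from replicon RNA reduction.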

Compound	melting point [°C]	pIC50 [1]
Cc1cc2c(C#N)c(-c3ccc(S(=O)(=O)N[C@@H](C)C(F)(F)F)cn3)n(C3CCC3)c2cn1 [Cpd 165, 6-(3-cyano-1-cyclobutyl-5-methyl-1H-pyrrolo[2,3-c]pyridin-2-yl)-N-[(2S)-1,1,1-trifluoropropan-2-yl]pyridine-3-sulfonamide]	185 to 188	5.70 to 6.30
Cc1cc2c(C#N)c(-c3ccc(S(=O)(=O)N[C@H](C)C(F)(F)F)cn3)n(C3CCC3)c2cn1 [Cpd 166, 6-(3-cyano-1-cyclobutyl-5-methyl-1H-pyrrolo[2,3-c]pyridin-2-yl)-N-[(2R)-1,1,1-trifluoropropan-2-yl]pyridine-3-sulfonamide]	195 to 198	> 6.30
Cc1cc2c(C#N)c(-c3ccc(S(=O)(=O)N[C@@H](C)C(F)(F)F)cc3)n(C3CCC3)c2cn1 [Cpd 167, 4-(3-cyano-1-cyclobutyl-5-methyl-1H-pyrrolo[2,3-c]pyridin-2-yl)-N-[(2S)-1,1,1-trifluoropropan-2-yl]benzenesulfonamide]	188 to 191	> 6.30
Cc1cc2c(C#N)c(-c3ccc(S(=O)(=O)NC4(C)CC4)cn3)n(C3CCC3)c2cn1 [Cpd 168, 6-(3-cyano-1-cyclobutyl-5-methyl-1H-pyrrolo[2,3-c]pyridine-2-yl)-N-(1-methylcyclopropyl)pyridine-3-sulfonamide]	185 to 190	> 6.30
C[C@H](NS(=O)(=O)c1ccc(-c2c(C#N)c3cc(F)cnc3n2C2CCC2)nc1)C(F)(F)F [Cpd 169, 6-(3-cyano-1-cyclobutyl-5-fluoro-1H-pyrrolo[2,3-b]pyridin-2-yl)-N-[(2S)-1,1,1-trifluoropropan-2-yl]pyridine-3-sulfonamide]	172 to 174	> 6.30
Cc1cnc2c(C#N)c(-c3ccc(S(=O)(=O)N[C@@H](C)C(F)(F)F)cn3)n(C3CCCC3)c2c1 [Cpd 170, 6-(3-cyano-1-cyclopentyl-6-methyl-1H-pyrrolo[3,2-b]pyridin-2-yl)-N-[(2S)-1,1,1-trifluoropropan-2-yl]pyridine-3-sulfonamide]	210 to 212	> 6.30
Cc1cnc2c(C#N)c(-c3ccc(S(=O)(=O)N[C@H](C)C(F)(F)F)cn3)n(C3CCCC3)c2c1 [Cpd 171, 6-(3-cyano-1-cyclopentyl-6-methyl-1H-pyrrolo[3,2-b]pyridin-2-yl)-N-[(2R)-1,1,1-trifluoropropan-2-yl]pyridine-3-sulfonamide]	215 to 217	> 6.30
Cc1cnc2c(C#N)c(-c3ccc(S(=O)(=O)NC4(C(F)(F)F)CC4)cn3)n(C3CCCC3)c2c1 [Cpd 172, 6-(3-cyano-1-cyclopentyl-6-methyl-1H-pyrrolo[3,2-b]pyridin-2-yl)-N-[1-(trifluoromethyl)cyclopropyl]pyridine-3-sulfonamide]	249 to 251	> 6.30
Cc1cnc2c(C#N)c(-c3ccc(S(=O)(=O)NC(C)(C)C(F)(F)F)cn3)n(C3CCCC3)c2c1 [Cpd 173, 6-(3-cyano-1-cyclopentyl-6-methyl-1H-pyrrolo[3,2-b]pyridin-2-yl)-N-(1,1,1-trifluoro-2-methylpropan-2-yl)pyridine-3-sulfonamide]	265 to 267	> 6.30
Cc1cnc2c(C#N)c(-c3ccc(S(=O)(=O)NC4(C)CC4)cn3)n(C3CCCC3)c2c1 [Cpd 174, 6-(3-cyano-1-cyclopentyl-6-methyl-1H-pyrrolo[3,2-b]pyridin-2-yl)-N-(1-methylcyclopropyl)pyridine-3-sulfonamide]	215 to 217	> 6.30
Cc1cnc2c(C#N)c(-c3ccc(S(=O)(=O)NC(C)(C)C)cn3)n(C3CCCC3)c2c1 [Cpd 175, N-tert-butyl-6-(3-cyano-1-cyclopentyl-6-methyl-1H-pyrrolo[3,2-b]pyridin-2-yl)pyridine-3-sulfonamide]	267 to 269	> 6.30
Cc1cnc2c(C#N)c(-c3ccc(S(=O)(=O)NC(CF)CF)cn3)n(C3CCCC3)c2c1 [Cpd 176, 6-(3-cyano-1-cyclopentyl-6-methyl-1H-pyrrolo[3,2-b]pyridin-2-yl)-N-(1,3-difluoropropan-2-yl)pyridine-3-sulfonamide]	248 to 249	> 6.30
Cc1cnc2c(C#N)c(-c3ncc(S(=O)(=O)NC(CF)CF)cn3)n(C3CCCC3)c2c1 [Cpd 177, 2-(3-cyano-1-cyclopentyl-6-methyl-1H-pyrrolo[3,2-b]pyridin-2-yl)-N-(1,3-difluoropropan-2-yl)pyrimidine-5-sulfonamide]	256 to 258	> 6.30
Cc1cnc2c(C#N)c(-c3ncc(S(=O)(=O)NC(C)C)cn3)n(C3CCCC3)c2c1 [Cpd 178, 2-(3-cyano-1-cyclopentyl-6-methyl-1H-pyrrolo[3,2-b]pyridin-2-yl)-N-(propan-2-yl)pyrimidine-5-sulfonamide]	263 to 265	> 6.30
Cc1cnc2c(C#N)c(-c3ncc(S(=O)(=O)N[C@@H](C)C(F)(F)F)cn3)n(C3CCCC3)c2c1 [Cpd 179, 2-(3-cyano-1-cyclopentyl-6-methyl-1H-pyrrolo[3,2-b]pyridin-2-yl)-N-[(2S)-1,1,1-trifluoropropan-2-yl]pyrimidine-5-sulfonamide]	262 to 264	> 6.30
Cc1cnc2c(C#N)c(-c3ccc(S(=O)(=O)N[C@@H](C)C(F)(F)F)cc3)n(C3CCCC3)c2c1 [Cpd 180, 4-(3-cyano-1-cyclopentyl-6-methyl-1H-pyrrolo[3,2-b]pyridin-2-yl)-N-[(2S)-1,1,1-trifluoropropan-2-yl]benzenesulfonamide]	278 to 279	5.70 to 6.30
Cc1cnc2c(C#N)c(-c3ccc(S(=O)(=O)N[C@H](C)C(F)(F)F)cc3)n(C3CCCC3)c2c1 [Cpd 181, 4-(3-cyano-1-cyclopentyl-6-methyl-1H-pyrrolo[3,2-b]pyridin-2-yl)-N-[(2R)-1,1,1-trifluoropropan-2-yl]benzenesulfonamide]	281 to 283	> 6.30
CCc1cnc2c(c1)c(C#N)c(-c1ccc(S(=O)(=O)NC(C)(C)C(F)(F)F)cc1)n2C1CCC1 [Cpd 182, 4-(3-cyano-1-cyclobutyl-5-ethyl-1H-pyrrolo[2,3-b]pyridin-2-yl)-N-(1,1,1-trifluoro-2-methylpropan-2-yl)benzenesulfonamide]	190 to 195	> 6.30
CCc1cnc2c(c1)c(C#N)c(-c1ccc(S(=O)(=O)NC3(C(F)(F)F)CC3)cc1)n2C1CCC1 [Cpd 183, 4-(3-cyano-1-cyclobutyl-5-ethyl-1H-pyrrolo[2,3-b]pyridin-2-yl)-N-[1-(trifluoromethyl)cyclopropyl]benzenesulfonamide]	161 to 168	5.70 to 6.30
CCc1cnc2c(c1)c(C#N)c(-c1ccc(S(=O)(=O)NC3(C(F)(F)F)CC3)cn1)n2C1CCC1 [Cpd 184, 6-(3-cyano-1-cyclobutyl-5-ethyl-1H-pyrrolo[2,3-b]pyridin-2-yl)-N-[1-(trifluoromethyl)cyclopropyl]pyridine-3-sulfonamide]	216 to 221	> 6.30
CCc1cnc2c(c1)c(C#N)c(-c1ccc(S(=O)(=O)NC(C)(C)C)cc1)n2C1CCC1 [Cpd 185, N-tert-butyl-4-(3-cyano-1-cyclobutyl-5-ethyl-1H-pyrrolo[2,3-b]pyridin-2-yl)benzenesulfonamide]	190 to 196	> 6.30
CCc1cnc2c(c1)c(C#N)c(-c1ccc(S(=O)(=O)NC3(C)CC3)cc1)n2C1CCC1 [Cpd 187, 4-(3-cyano-1-cyclobutyl-5-ethyl-1H-pyrrolo[2,3-b]pyridin-2-yl)-N-(1-methylcyclopropyl)benzenesulfonamide]	157 to 163	> 6.30
CCc1cnc2c(c1)c(C#N)c(-c1ccc(S(=O)(=O)NC(CF)CF)cc1)n2C1CCC1 [Cpd 190, 4-(3-cyano-1-cyclobutyl-5-ethyl-1H-pyrrolo[2,3-b]pyridin-2-yl)-N-(1,3-difluoropropan-2-yl)benzenesulfonamide]	165 to 171	> 6.30
CCc1cnc2c(c1)c(C#N)c(-c1ccc(S(=O)(=O)NC(CF)CF)cn1)n2C1CCC1 [Cpd 191, 6-(3-cyano-1-cyclobutyl-5-ethyl-1H-pyrrolo[2,3-b]pyridin-2-yl)-N-(1,3-difluoropropan-2-yl)pyridine-3-sulfonamide]	157 to 165	5.70 to 6.30
CCc1cnc2c(c1)c(C#N)c(-c1ccc(S(=O)(=O)NC3CCC3)cn1)n2C1CCC1 [Cpd 194, 6-(3-cyano-1-cyclobutyl-5-ethyl-1H-pyrrolo[2,3-b]pyridin-2-yl)-N-cyclobutylpyridine-3-sulfonamide]	168 to 177	> 6.30
CCc1cnc2c(c1)c(C#N)c(-c1ccc(S(=O)(=O)NC(C)C)nc1)n2C1CCC1 [Cpd 195, 5-(3-cyano-1-cyclobutyl-5-ethyl-1H-pyrrolo[2,3-b]pyridin-2-yl)-N-(propan-2-yl)pyridine-2-sulfonamide]	195 to 202	> 6.30
CCc1cnc2c(c1)c(C#N)c(-c1ncc(S(=O)(=O)NC(C)C)cn1)n2C1CCC1 [Cpd 196, 2-(3-cyano-1-cyclobutyl-5-ethyl-1H-pyrrolo[2,3-b]pyridin-2-yl)-N-(propan-2-yl)pyrimidine-5-sulfonamide]	170 to 178	> 6.30
C[C@@H](NS(=O)(=O)c1ccc(-c2c(C#N)c3cc(OC(F)F)cnc3n2C2CCC2)nc1)C(F)(F)F [Cpd 197, 6-[3-cyano-1-cyclobutyl-5-(difluoromethoxy)-1H-pyrrolo[2,3-b]pyridin-2-yl]-N-[(2R)-1,1,1-trifluoropropan-2-yl]pyridine-3-sulfonamide]	149 to 151	> 6.30
